Where “and” joins values, the source holds several entries; their conditions need not be identical. Equal entries are not always repeated.
Test: xn = mol fraction of the nth substance listed
Details: Gas, Frequency=2 MHz, Pulse-echo method

CCC [propane] + O=C=O
Details	speed of sound
298.18 K, 100010 kPa, x2 = 0.9376	1076.7 m/s
298.18 K, 125020 kPa, x2 = 0.9376	1162.3 m/s
298.18 K, 149960 kPa, x2 = 0.9376	1236.7 m/s
298.18 K, 175000 kPa, x2 = 0.9376	1302.7 m/s
298.18 K, 200100 kPa, x2 = 0.9376	1364.5 m/s
323.09 K, 24930 kPa, x2 = 0.9683	534.6 m/s
323.09 K, 24940 kPa, x2 = 0.9683	534.8 m/s
323.09 K, 50140 kPa, x2 = 0.9683	752.6 m/s
323.09 K, 75000 kPa, x2 = 0.9683	890.2 m/s
323.09 K, 75070 kPa, x2 = 0.9683	897.6 m/s
323.09 K, 100590 kPa, x2 = 0.9683	1000.1 m/s
323.09 K, 125560 kPa, x2 = 0.9683	1088.7 m/s
323.09 K, 149970 kPa, x2 = 0.9683	1164.3 m/s
323.09 K, 175330 kPa, x2 = 0.9683	1234.8 m/s
323.09 K, 200000 kPa, x2 = 0.9683	1296.5 m/s
323.1 K, 30220 kPa, x2 = 0.9907	590.1 m/s
323.1 K, 30230 kPa, x2 = 0.9907	589.8 m/s
323.1 K, 49980 kPa, x2 = 0.9907	747 m/s
323.1 K, 75170 kPa, x2 = 0.9907	886.1 m/s
323.1 K, 100210 kPa, x2 = 0.9907	992.6 m/s
323.1 K, 124810 kPa, x2 = 0.9907	1080.5 m/s
323.1 K, 149980 kPa, x2 = 0.9907	1157.2 m/s
323.1 K, 174620 kPa, x2 = 0.9907	1224.1 m/s
323.1 K, 200340 kPa, x2 = 0.9907	1288.4 m/s
323.13 K, 50000 kPa, x2 = 0.9981	745.6 m/s
323.13 K, 50020 kPa, x2 = 0.9981	745.8 m/s
323.13 K, 75120 kPa, x2 = 0.9981	883.4 m/s
323.13 K, 100030 kPa, x2 = 0.9981	988.9 m/s
323.13 K, 124980 kPa, x2 = 0.9981	1076.8 m/s
323.13 K, 150000 kPa, x2 = 0.9981	1153.2 m/s
323.13 K, 175020 kPa, x2 = 0.9981	1220.9 m/s
323.13 K, 200000 kPa, x2 = 0.9981	1282.1 m/s
323.19 K, 15120 kPa, x2 = 0.9376	381.2 m/s
323.19 K, 15160 kPa, x2 = 0.9376	381.4 m/s
323.19 K, 25000 kPa, x2 = 0.9376	541.2 m/s
323.19 K, 50090 kPa, x2 = 0.9376	758.5 m/s
323.19 K, 75070 kPa, x2 = 0.9376	897.6 m/s
323.19 K, 100040 kPa, x2 = 0.9376	1005.2 m/s
323.19 K, 125050 kPa, x2 = 0.9376	1095.7 m/s
323.19 K, 150020 kPa, x2 = 0.9376	1173.9 m/s
323.19 K, 175000 kPa, x2 = 0.9376	1243.4 m/s
323.19 K, 200420 kPa, x2 = 0.9376	1307.5 m/s
348.09 K, 30390 kPa, x2 = 0.9683	504.8 m/s
348.09 K, 30400 kPa, x2 = 0.9683	504.8 m/s
348.09 K, 49950 kPa, x2 = 0.9981	667.1 m/s and 667.2 m/s
348.09 K, 50030 kPa, x2 = 0.9683	675.2 m/s
348.09 K, 50360 kPa, x2 = 0.9907	672.7 m/s
348.09 K, 50370 kPa, x2 = 0.9907	672.7 m/s
348.09 K, 75020 kPa, x2 = 0.9981	813.6 m/s
348.09 K, 75080 kPa, x2 = 0.9907	816.9 m/s
348.09 K, 75220 kPa, x2 = 0.9683	823 m/s
348.09 K, 99980 kPa, x2 = 0.9981	924.6 m/s
348.09 K, 100580 kPa, x2 = 0.9907	931.1 m/s
348.09 K, 100600 kPa, x2 = 0.9683	937.3 m/s
